Experimental findings from publication PMC3898838, “Design, Synthesis, and Biological Evaluation of an Allosteric Inhibitor of HSET that Targets Cancer Cells with Supernumerary Centrosomes” (Chemistry & Biology, 2013) are described below.

For assay [1], the system named is BT549 cells. Nature of the assay: Immunofluorescence, mitotic spindle morphology. Conditions: BT549, 100 μM and 200 μM, 2.5 hr. The assay is classed as cell-based, human. As for the experimental part:
(§1) […] Prewarmed 4% paraformaldehyde in PBS was then added to each well to fix the cells before washing with PBS. Permeabilization and blocking was performed by incubating the slides with 1% BSA, 0.3% Triton X-100, 5% goat serum in PBS (PBS/B/0.3%T+5%GS) for 1 hr while shaking them at room temperature (RT). The slides were incubated with primary antibody solutions (mouse monoclonal anti-α-Tubulin [catalog number T9026; Sigma-Aldrich] and rabbit anti-CDK5RAP2 [catalog number A300-554A; Bethyl Laboratories]) at 4°C for 16 hr. The slides were washed four times with PBS/B/0.3%T+5%GS and then incubated with secondary antibody solutions (anti-rabbit IgG Alexa Fluor 488 [catalog number A21206] and anti-mouse IgG Alexa Fluor 647 [catalog number A20990]; Invitrogen) and DAPI (catalog number D3571; Invitrogen) in deionized water (300 nM) in the dark at RT for 1 hr. After four washes with PBS/B/0.3%T+5%GS, the solution was replaced with PBS and the slides were stored at 4°C until imaging was performed. Images were gathered with the use of an ICys Research Imaging Cytometer (CompuCyte) or a tandem confocal microscope (Leica).
(§2) (1 picture or pasted object on this page, not shown here)

Assay [2] deals with MCF-7 cells. The assay is described as follows: Immunofluorescence, mitotic spindle morphology. The assay is classed as cell-based, human. Particulars: MCF-7, 100 μM and 200 μM, 2.5 hr. The procedure:
as §1, §2

For assay [3], the system named is MDA-MB-231 cells. Nature of the assay: Immunofluorescence, mitotic spindle morphology. Format: cell-based, human. Conditions: MDA-MB-231, 100 μM and 200 μM, 2.5 hr. As for the experimental part:
as §1, §2

Assay [4] relates to N1E-115 cells. The assay is described as follows: Time-lapse microscopy, mitotic fate. Format: cell-based, mouse. The procedure:
Therefore, we interrogated cell division in N1E-115 cells using time-lapse imaging for further validation of target engagement. Treatment with 200 μM CW069 did indeed induce multipolar anaphase formation in N1E-115 cells (48%; Figure 5A) compared with the DMSO control (0%; Figure 5A). […] This is consistent with a previous report that catastrophic aneuploidy associated with multipolar divisions prompted cell death ([Kwon et al., 2008]). In order to corroborate selective inhibition of HSET by CW069 in cells, we treated HSET siRNA-depleted cells with 200 μM CW069 and compared them with DMSO/control siRNA-, DMSO/HSET siRNA-, and CW069/control siRNA-treated cells (Figure 5D).
Cells were synchronized in G2-M by incubation at 37°C and 5% CO2 for 24 hr with 9 μM of the CDK1 inhibitor RO-3306 (Merck). Cells were released by removal of the RO-3306 and four washings of 10 min each, at 37°C, with prewarmed culture media + 10% FBS. N1E-115 cells were transfected with siRNA (Supplemental Experimental Procedures) and imaged from 6 hr after transfection. Some RO-3306-synchronized cells were released with 200 μM CW069, 100 μM monastrol, or 0.2% DMSO, and imaging started immediately or 1 hr after treatment. Imaging was carried out for 24 hr, or for 4 hr in the case of the CW069/monastrol cotreatment. Imaging was conducted every 5 min in a humidified chamber with 37°C and 5% CO2, using a Nikon Eclipse TE2000-E microscope, and analyzed with NIS-Elements software (Nikon, Tokyo, Japan). The morphology of cells in mitosis and the mitotic fate (bipolar division, multipolar division, or cell death) were analyzed.

The subject of assay [5] is HeLa cells. Nature of the assay: Immunofluorescence after time-lapse imaging, monopolar/bipolar spindles. The assay is classed as cell-based, human. Particulars: 200 μM CW069, 100 μM monastrol, 40 mitotic cells. The text has this: Immediately after time-lapse imaging, cells were fixed and antibodies against α-tubulin, CDK5RAP2, and DAPI were employed to visualize MTs, centrosomes, and DNA, respectively. […] Control HeLa cells formed mainly bipolar spindles (92%), with two centrosomes positioned at the spindle poles on either side of the metaphase plate (Figure 6C; Table 1). Similar numbers of bipolar spindles were formed in CW069-treated cells (95%; Figure 6C; Table 1). Monastrol-treated cells almost exclusively formed monopolar spindles (97%) with one pole surrounded by DNA ([Luo et al., 2004]; Figure 6C; Table 1). Normal bipolar spindle formation was indeed restored for many cells (45%) when the HSET inhibitor CW069 was administered along with the KSP inhibitor monastrol (Figure 6C; Table 1).
Cells were plated at a seeding density of 1.2 × 10^4 cells per well in Ibidi eight-well chamber slides, incubated for 24 hr, and then treated with compound for 3 hr. Prewarmed 4% paraformaldehyde in PBS was then added to each well to fix the cells before washing with PBS. Permeabilization and blocking was performed by incubating the slides with 1% BSA, 0.3% Triton X-100, 5% goat serum in PBS (PBS/B/0.3%T+5%GS) for 1 hr while shaking them at room temperature (RT). The slides were incubated with primary antibody solutions (mouse monoclonal anti-α-Tubulin [catalog number T9026; Sigma-Aldrich] and rabbit anti-CDK5RAP2 [catalog number A300-554A; Bethyl Laboratories]) at 4°C for 16 hr. The slides were washed four times with PBS/B/0.3%T+5%GS and then incubated with secondary antibody solutions (anti-rabbit IgG Alexa Fluor 488 [catalog number A21206] and anti-mouse IgG Alexa Fluor 647 [catalog number A20990]; Invitrogen) and DAPI (catalog number D3571; Invitrogen) in deionized water (300 nM) in the dark at RT for 1 hr. After four washes with PBS/B/0.3%T+5%GS, the solution was replaced with PBS and the slides were stored at 4°C until imaging was performed. Images were gathered with the use of an ICys Research Imaging Cytometer (CompuCyte) or a tandem confocal microscope (Leica).

In the case of `O=C(O)c1cc(I)ccc1NC(=O)[C@H](Cc1ccccc1)NCc1ccccc1` [CW069], the multipolar spindles entry in assay [1] is given as “increased multipolar spindles”. Moreover, the bipolar spindle formation entry in assay [2] is on record as “did not perturb bipolar spindle formation”. Also, the multipolar spindles entry in assay [3] is on record as “small but significant increase in multipolar spindles”. Further, the “fate of daughter cells after aberrant divisions” value in assay [4] (N1E-115, 200 μM) was “the majority of daughter cells underwent apoptosis”. Moreover, in assay [4] (N1E-115, 200 μM CW069, DMSO control 0% (Figure 5A)), the multipolar anaphase formation came to 48%. Also, the multipolar anaphases in assay [4] (N1E-115, siRNA plus 200 μM CW069 or DMSO, DMSO/control siRNA 11% (Figure 5D)) amounted to 57%. Also, in assay [5], the “Bipolar Spindle (%)” value is on record as 95% and the “Monopolar Spindle (%)” value was found to be 5%.
